# According to PubChem BioAssay (NCI):
# Values joined by “and” are separate entries in the source; they are usually repeats but may differ in a detail not shown here. Identical values can stand only once.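 Interpolation was linear, between the two tested concentrations surrounding the appropriate level; five concentrations were tested over 48 hours in 96-well plates. GI50 is the concentration that inhibits growth by half. Definition used: TGI = concentration required for complete inhibition of growth.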
# Tested on: T-47D breast
# Experiment: NCI-60 cell line screen, 48 h
SMILES,GI50,TGI
CC/C=C\C[C@H]1C/C=C2/C(=O)C=C[C@@H]2C/C=C\CCCC(=O)O1,1.21 µM,9.33 µM

# Tested on: HCT-15 colon
# Experiment: NCI-60 cell line screen, 48 h
SMILES,TGI,GI50
CCOC(=O)C1C2CCC1CC(=NNc1ccc([N+](=O)[O-])cc1[N+](=O)[O-])C2 (stereo not drawn),> 50 µM,
O=c1c2ccccc2c(=O)c2c1[nH]c1c(-c3ccccc3)c(-c3ccccc3)c(=O)c12,4.22 µM,1.31 µM
CCc1nc(C(N)=O)c(Nc2ccc(N3CCC(N4CCN(C)CC4)CC3)c(OC)c2)nc1NC1CCOCC1,15.7 µM and > 10 µM and 16 µM,1.68 µM and 0.38 µM and 1.41 µM
CC/C=C\C[C@H]1C/C=C2/C(=O)C=C[C@@H]2C/C=C\CCCC(=O)O1,2.86 µM,0.423 µM

# Tested on: SF-295 CNS
# Experiment: NCI-60 cell line screen, 48 h
SMILES,TGI,GI50
CCOC(=O)C1C2CCC1CC(=NNc1ccc([N+](=O)[O-])cc1[N+](=O)[O-])C2 (stereo not drawn),> 50 µM,
O=c1c2ccccc2c(=O)c2c1[nH]c1c(-c3ccccc3)c(-c3ccccc3)c(=O)c12,6.24 µM,2.34 µM
CCc1nc(C(N)=O)c(Nc2ccc(N3CCC(N4CCN(C)CC4)CC3)c(OC)c2)nc1NC1CCOCC1,15.3 µM and > 3.5 µM and 17.3 µM,3.59 µM and 1.02 µM and 4.54 µM
CC/C=C\C[C@H]1C/C=C2/C(=O)C=C[C@@H]2C/C=C\CCCC(=O)O1,5.44 µM,2.17 µM

# Tested on: PC-3 prostate
# Experiment: NCI-60 cell line screen, 48 h
SMILES,TGI,GI50
CCOC(=O)C1C2CCC1CC(=NNc1ccc([N+](=O)[O-])cc1[N+](=O)[O-])C2 (stereo not drawn),> 50 µM,
O=c1c2ccccc2c(=O)c2c1[nH]c1c(-c3ccccc3)c(-c3ccccc3)c(=O)c12,11.1 µM,2.67 µM
CCc1nc(C(N)=O)c(Nc2ccc(N3CCC(N4CCN(C)CC4)CC3)c(OC)c2)nc1NC1CCOCC1,25.7 µM and > 10 µM and 26 µM,
CC/C=C\C[C@H]1C/C=C2/C(=O)C=C[C@@H]2C/C=C\CCCC(=O)O1,3.73 µM,1.31 µM

# Tested on: CAKI-1 renal
# Experiment: NCI-60 cell line screen, 48 h
SMILES,TGI,GI50
CCOC(=O)C1C2CCC1CC(=NNc1ccc([N+](=O)[O-])cc1[N+](=O)[O-])C2 (stereo not drawn),> 50 µM,
O=c1c2ccccc2c(=O)c2c1[nH]c1c(-c3ccccc3)c(-c3ccccc3)c(=O)c12,4.99 µM,1.93 µM
CCc1nc(C(N)=O)c(Nc2ccc(N3CCC(N4CCN(C)CC4)CC3)c(OC)c2)nc1NC1CCOCC1,12.9 µM and > 10 µM and 13.4 µM,1.24 µM and 0.236 µM and 1.21 µM
CC/C=C\C[C@H]1C/C=C2/C(=O)C=C[C@@H]2C/C=C\CCCC(=O)O1,8.98 µM,1.05 µM

# Tested on: UO-31 renal
# Experiment: NCI-60 cell line screen, 48 h
SMILES,TGI,GI50
CCOC(=O)C1C2CCC1CC(=NNc1ccc([N+](=O)[O-])cc1[N+](=O)[O-])C2 (stereo not drawn),> 50 µM,
O=c1c2ccccc2c(=O)c2c1[nH]c1c(-c3ccccc3)c(-c3ccccc3)c(=O)c12,5.55 µM,1.75 µM
CCc1nc(C(N)=O)c(Nc2ccc(N3CCC(N4CCN(C)CC4)CC3)c(OC)c2)nc1NC1CCOCC1,8.61 µM and > 10 µM and 8.63 µM,1.01 µM and 0.282 µM and 1.23 µM
CC/C=C\C[C@H]1C/C=C2/C(=O)C=C[C@@H]2C/C=C\CCCC(=O)O1,2.48 µM,1.13 µM

# Tested on: HOP-92 NSCLC
# Experiment: NCI-60 cell line screen, 48 h
SMILES,TGI,GI50
CCOC(=O)C1C2CCC1CC(=NNc1ccc([N+](=O)[O-])cc1[N+](=O)[O-])C2 (stereo not drawn),48.7 µM,
O=c1c2ccccc2c(=O)c2c1[nH]c1c(-c3ccccc3)c(-c3ccccc3)c(=O)c12,12.7 µM,3.23 µM
CCc1nc(C(N)=O)c(Nc2ccc(N3CCC(N4CCN(C)CC4)CC3)c(OC)c2)nc1NC1CCOCC1,1.62 µM and 0.64 µM and 1.63 µM,0.173 µM and 0.0827 µM and 0.247 µM
CC/C=C\C[C@H]1C/C=C2/C(=O)C=C[C@@H]2C/C=C\CCCC(=O)O1,5.93 µM,2.34 µM

# Tested on: IGROV1 ovarian
# Experiment: NCI-60 cell line screen, 48 h
SMILES,TGI,GI50
CCOC(=O)C1C2CCC1CC(=NNc1ccc([N+](=O)[O-])cc1[N+](=O)[O-])C2 (stereo not drawn),> 50 µM,
O=c1c2ccccc2c(=O)c2c1[nH]c1c(-c3ccccc3)c(-c3ccccc3)c(=O)c12,20.4 µM,3.39 µM
CCc1nc(C(N)=O)c(Nc2ccc(N3CCC(N4CCN(C)CC4)CC3)c(OC)c2)nc1NC1CCOCC1,8.09 µM and > 10 µM and 8.12 µM,0.876 µM and 0.279 µM and 0.79 µM
